Measurements from PubChem BioAssay (NCI).
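Where inhibition never reached the appropriate level, the endpoint shown equals the highest concentration tested. Otherwise, values were interpolated linearly from a five-concentration, 48-hour dose response in 96-well plates. At the GI50, growth is halved. The concentration for full growth arrest is given as TGI.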

Experiments:
Test in all cases: NCI anticancer screen, dose series, 48 h
CAKI-1 renal = system: CAKI-1 renal
CCRF-CEM leukemia = system: CCRF-CEM leukemia
DU-145 prostate = system: DU-145 prostate
HCT-116 colon = system: HCT-116 colon
HCT-15 colon = system: HCT-15 colon
HS 578T breast = system: HS 578T breast
K-562 leukemia = system: K-562 leukemia
MALME-3M melanoma = system: MALME-3M melanoma
MCF7 breast = system: MCF7 breast
MDA-MB-231 breast = system: MDA-MB-231 breast
MOLT-4 leukemia = system: MOLT-4 leukemia
NCI/ADR-RES ovarian = system: NCI/ADR-RES ovarian
OVCAR-3 ovarian = system: OVCAR-3 ovarian
OVCAR-4 ovarian = system: OVCAR-4 ovarian
OVCAR-5 ovarian = system: OVCAR-5 ovarian
OVCAR-8 ovarian = system: OVCAR-8 ovarian
PC-3 prostate = system: PC-3 prostate
RPMI-8226 leukemia = system: RPMI-8226 leukemia
SF-268 CNS = system: SF-268 CNS
SF-539 CNS = system: SF-539 CNS
SNB-75 CNS = system: SNB-75 CNS
SR leukemia = system: SR leukemia
SW-620 colon = system: SW-620 colon
T-47D breast = system: T-47D breast
TK-10 renal = system: TK-10 renal

## COc1cc(/C=C2\CCCC3=C2NC(C)=NC3c2cc(OC)c(OC)c(OC)c2)cc(OC)c1OC (stereo not given)
CAKI-1 renal
  GI50: 2610 nM
  TGI: 22900 nM
CCRF-CEM leukemia
  GI50: 838 nM
  TGI: > 100000 nM
DU-145 prostate
  GI50: 1530 nM
  TGI: > 100000 nM
HCT-116 colon
  GI50: 460 nM
  TGI: 1760 nM
HCT-15 colon
  GI50: 1030 nM
  TGI: > 100000 nM
HS 578T breast
  GI50: 5160 nM
  TGI: > 100000 nM
K-562 leukemia
  GI50: 917 nM
  TGI: > 100000 nM
MALME-3M melanoma
  GI50: 1600 nM
  TGI: 4760 nM
MCF7 breast
  GI50: 1450 nM
  TGI: > 100000 nM
MDA-MB-231 breast
  GI50: 3010 nM
  TGI: > 100000 nM
MOLT-4 leukemia
  GI50: 1930 nM
  TGI: > 100000 nM
NCI/ADR-RES ovarian
  GI50: 505 nM
  TGI: > 100000 nM
OVCAR-3 ovarian
  GI50: 2650 nM
  TGI: > 100000 nM
OVCAR-4 ovarian
  GI50: 2390 nM
  TGI: > 100000 nM
OVCAR-5 ovarian
  GI50: 3540 nM
  TGI: > 100000 nM
OVCAR-8 ovarian
  GI50: 372 nM
  TGI: > 100000 nM
PC-3 prostate
  GI50: 2050 nM
  TGI: > 100000 nM
RPMI-8226 leukemia
  GI50: 536 nM
  TGI: 4670 nM
SF-268 CNS
  GI50: 1880 nM
  TGI: > 100000 nM
SF-539 CNS
  GI50: 1550 nM
  TGI: > 100000 nM
SNB-75 CNS
  GI50: > 100000 nM
  TGI: > 100000 nM
SR leukemia
  GI50: 436 nM
  TGI: 7660 nM
SW-620 colon
  GI50: 1450 nM
  TGI: > 100000 nM
T-47D breast
  GI50: 3250 nM
  TGI: > 100000 nM
TK-10 renal
  GI50: 4330 nM
  TGI: > 100000 nM
